Measured values: the METLIN SMRT retention time set (Domingo-Almenara et al. 2019)

Assay: gradient 5% acetonitrile 3 min, to 50% in 2 min, to 85% in 15 min, held 3 min, 100 µL/min
Conditions: column: Zorbax Extend-C18 2.1 x 50 mm; eluents: water / acetonitrile, 0.1% formic acid
Method in brief: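 Pure standards were run in mixtures of ~100 molecules by HPLC coupled to a quadrupole time-of-flight mass spectrometer. The column was a Zorbax Extend-C18 (2.1 × 50 mm, 1.8 μm) at 100 μL/min, with water and acetonitrile each containing 0.1% formic acid, in positive and negative ionization mode. Dead and dwell volumes were 40 μL and 900 μL. Retention time was taken from computationally picked adduct peaks, each manually inspected, with data collected over 3 months.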

| SMILES | RP-LC retention time |
| --- | --- |
| CC(C)NC(=O)C1Cc2cc(C(F)(F)F)ccc2N2CCN(c3ccccc3Cl)CC12 (configuration not stated) | 1200 s |
| Fc1cccc(-c2nnc(Cc3nc(-c4cccc(Cl)c4)no3)o2)c1 | 1070 s |
| CCC(=O)N1c2ccc(S(=O)(=O)CCC(=O)N3CCN(c4ccccc4F)CC3)cc2CC1C (configuration not stated) | 894 s |
| CCOc1ccc(S(=O)(=O)Nc2ccc(-c3cn4ccccc4n3)cc2)cc1 | 661 s |
| O=C(NCCC1=CCCCC1)c1ccc(CN2CCN(C3CCCC3)C(=O)C2=O)cc1 | 836 s |
| COc1ccc(Cl)cc1S(=O)(=O)NCC1(C)CCOCC1 | 874 s |
| CCN1c2ccccc2C(=O)NC12CCN(C(=O)NCc1cccc(F)c1)CC2 | 740 s |
| COc1ccc2c(c1)C1(CCN(S(=O)(=O)c3ccc(Cl)cc3)C1)C(=O)N2 (configuration not stated) | 894 s |
| Cc1ccc2nc(SCc3noc(CCC(=O)Nc4nc(-c5ccccc5)cs4)n3)[nH]c2c1 | 802 s |
| Cc1nc(-c2cn(C(C)C)c3ncccc23)sc1C(=O)Nc1ccc(F)cc1 | 947 s |
| Cc1cccc(NC(=O)Nc2nc(C(=O)NCc3cccs3)cs2)c1 | 794 s |
| Cc1ccc(-c2nc(C3CCN(S(=O)(=O)c4ccccc4F)CC3)no2)cc1 | 1170 s |
| Cc1ccc(C)c(S(=O)(=O)N2[C@H]3CC[C@@H]2c2cnc(-c4ccccc4)nc2C3)c1 | 1230 s |
| CN(CCc1noc(COc2ccccc2F)n1)C(=O)NCCc1ccccc1 | 876 s |
| CCn1nnc(NCc2ccc(-c3ccc(Cl)cc3Cl)o2)n1 | 1130 s |
| CC(C)Cc1csc(-c2csc(S(=O)(=O)NCc3ccc(F)cc3)c2)n1 | 1160 s |
| Cc1ccn2cc(C(=O)NCc3cc(F)cc(F)c3)nc2c1 | 678 s |
| O=C(NCc1ccco1)c1ccc2c(c1)CCCN2C(=O)c1ccc(Cl)cc1 | 852 s |
| Cc1ccc(Nc2nc(C)cc(N3CCN(S(=O)(=O)c4c(C)cc(C)cc4C)CC3)n2)cc1 | 917 s |
| COc1ccc(-c2nnc(COc3ccc(NC(=O)c4ccc(Br)o4)cc3)o2)cc1 | 934 s |
| CCn1cc(CN2CCC(C(=O)NCc3ccc(C)o3)CC2)c2ccccc21 | 690 s |
| CC(Oc1cccc(Cl)c1)c1nc(-c2ccc3c(c2)ncn3CCC(=O)N2CCCC2)no1 (configuration not stated) | 838 s |
| Cn1c(C2CCN(C(=O)Nc3ccc(Cl)cc3F)CC2)cc(=O)n2nccc12 | 670 s |

| SMILES | RP-LC retention time |
| --- | --- |
| Cc1ccccc1CC(=O)NC(CC(C)C)C(=O)Nc1nc2ccccc2[nH]1 (configuration not stated) | 763 s |
| Fc1ccc(-c2nc(-c3ccc4nncn4c3)no2)cc1 | 810 s |
| O=C(Nc1nc(-c2ccc(F)cc2)cs1)c1cccc(F)c1 | 1060 s |
| CCCNC(=O)C1CCCN(c2nnc(C)c3c(C)n(-c4ccc(Cl)cc4)nc23)C1 (configuration not stated) | 693 s |
| COc1cccc(Nc2nc(C)c(C(=O)Nc3ccc(F)cc3F)s2)c1 | 955 s |
| CC1(C)CC(=O)c2cn(-c3ccc(F)cc3)c(=O)c(C(=O)Nc3ccccc3F)c2C1 | 1070 s |
| Cc1ccc(C(=O)N2CCCC(COc3ccc(C(=O)NC(C)C)cc3)C2)cc1F (configuration not stated) | 896 s |
| Cc1cc(C)n(CCC(=O)N2CCCn3ccnc3C2C2CCCC2)n1 (configuration not stated) | 604 s |
| COc1ccc(-n2ccc(=O)c(-c3nc(-c4ccc(F)cc4)no3)n2)cc1 | 851 s |
| COc1ccc(CNC(=O)c2csc(-c3cn(C)c4ncccc34)n2)c(OC)c1 | 924 s |
| Clc1ccccc1-c1nnc(-c2ccc(-n3ccnc3)nc2)o1 | 658 s |
| O=S(=O)(Nc1ccc(-c2cn3ccccc3n2)cc1)c1ccccc1 | 600 s |
| CN(C)C(=O)Cc1ccc(NC(=O)Cc2ccc(-c3ccccc3)cc2)cc1 | 795 s |
| COc1ccc(C2(C(=O)N3CCCOCCNC(=O)[C@@H]4CCC[C@@H]43)CC2)cc1 | 711 s |
| COc1ccc(C2c3[nH]c4ccccc4c3CCN2C(=O)c2cccnc2)cc1 (configuration not stated) | 887 s |
| COc1ccc(NC(=O)Cn2cnc3cc4c(cc32)OCCO4)cc1Cl | 658 s |
| COc1ccccc1C(=O)Nc1cccn2nc(C(C)C)nc12 | 1020 s |
| CN(CCc1noc(-c2ccc(F)cc2)n1)C(=O)COc1ccc(F)cc1 | 889 s |
| CN(CC1(C)CCOCC1)C(=O)COc1ccc(F)cc1 | 770 s |
| Clc1ccc(-c2ccc(CNCc3ccco3)o2)c(Cl)c1 | 743 s |
| O=C(Cc1csc(-n2cccc2)n1)NCc1nc(-c2ccccc2)no1 | 821 s |
| O=S(=O)(c1cccn2c(SCc3ccccc3)nnc12)N1CCCC1 | 808 s |
| CNC(=O)c1cc(N2CCN(C)CC2)nc2c(C)cccc12 | 601 s |

| SMILES | RP-LC retention time |
| --- | --- |
| Cn1cc(-c2ccncc2)cc1C(=O)N1CCN(c2cccc(Cl)c2)CC1 | 679 s |
| Cc1ccn2cc(-c3ccc(NC(=O)c4ccccc4Br)cc3)nc2n1 | 647 s |
| Nc1nc(-c2ccccc2)nn1C(=O)c1ccccc1F | 862 s |
| O=C(Cn1c(CN2CCOCC2)nc2ccccc21)N1CCCC1 | 579 s |
| C(=C\CSc1ccccn1)/CSc1ccccn1 | 955 s |
| COCc1nncn1C1CCN(S(=O)(=O)c2cccc(Cl)c2)CC1 | 738 s |
| O=C1CC(c2noc(-c3ccccc3)n2)CN1c1ccc(F)c(Cl)c1 (configuration not stated) | 1070 s |
| Cc1sc2ccn(Cc3ccc(F)cc3)c(=O)c2c1C(=O)NCCCN1CCOCC1 | 629 s |
| CCNC(=O)C1Cc2cc(C(F)(F)F)ccc2N2CCN(Cc3ccc(F)cc3)CC12 (configuration not stated) | 610 s |
| CC1CCC(NC(=O)C2c3ccccc3C(=O)N2CCCN2CCOCC2)CC1 (configuration not stated) | 640 s |
| O=C(CCC1CCCC1)NCCC1CCN(C(=O)Nc2ccc(F)cc2)CC1 | 887 s |
| O=C(COc1ccc(F)cc1)N1CCN2CCS(=O)(=O)N(C3CC3)C(=O)C2C1 (configuration not stated) | 773 s |
| COc1ccc(C(=O)NC(CC(C)C)C(=O)Nc2nc3ccccc3[nH]2)cc1OC (configuration not stated) | 705 s |
| Cc1ccc(OCc2nnc(SCC(=O)Nc3nc(-c4ccccc4)c(C)s3)o2)cc1 | 1090 s |
| Cc1ccc(C)c(N2CCN(c3ccc4cc(S(=O)(=O)N5CCCCC5C)ccc4n3)CC2)c1 (configuration not stated) | 1340 s |
| O=C(Nc1ccc(-c2nc(-c3ccc(Cl)cc3)no2)cc1)c1ccco1 | 1170 s |
| CCN1CCN(S(=O)(=O)c2ccc(-c3cc(C(F)(F)F)on3)o2)CC1 | 691 s |
| CNC(=O)c1cc(-c2cccc(F)c2)nc2ccccc12 | 850 s |
| CC(C)CCNC(=O)c1c(OCC2CC2)cc(=O)n2c1CCCCC2 | 774 s |
| CCn1c(N2CCN(C(=O)NCc3ccccc3)CC2)nc2ccccc21 | 646 s |
| CCCn1nc2ccc(S(=O)(=O)N3CCC(C)CC3)cn2c1=O | 893 s |
